Measurements reported in patent publication EP0799174B1, “BIOCIDAL ALCOHOLS, THEIR PRODUCTION AND THEIR USE” (SCHÜLKE & MAYR GMBH, priority 1994, dated 1996).

Legend:
[1] = system: Germ mixture of Staphylococcus aureus, Staphylococcus epidermis, Escherichia coli, Klebsiella pneumoniae, Enterobacter gergoviae, Pseudomonas aeruginosa …; experiment: Preservative test: weekly loading of the sample with germ suspension; assay type: cell-based; settings: aromatic alcohol 0.5% in sulfosuccinate 12.0% / betaine 3.0% formulation
Source text: Standard formulation: • sulfosuccinate 12.0% • betaine 3.0% • aromatic alcohol 0.5% • re-fatting agent • skin care additives • thickener • dem. water to 100 Test germs: Germ mixture of Staphylococcus aureus, Staphylococcus epidermis, Escherichia coli, Klebsiella pneumoniae, Enterobacter gergoviae, Pseudomonas aeruginosa, Pseudomonas fluorescens, Pseudomonas putida, Aspergillus niger, Penicillium funiculosum, Candida albicans; Total germ count 10^8-10^9/ml. Test method: weekly loading of the sample with germ suspension; smear onto CS and Sabouraud agar. See also K.-H. Diehl, P. Oltmanns, J. Ramsbotham, Seife, Öle, Fette, Wachse 118 (1992) 546.
Data expressed semi-qualitatively: • - no growth < 10^2 CFU/g (CFU = colony-forming units) • + slight growth approx. 10^3 CFU/g • ++ moderate growth approx. 10^4-10^5 CFU/g • +++ heavy growth > 10^5 CFU/g

[2] = system: Ps. aeruginosa; experiment: Quantitative surface test according to DGHM, alcoholic surface disinfectant; assay type: cell-based; settings: additive (0.05% for single substances) in ethanol 25.0 % / 1-propanol 35.0 % formulation, germs deposited after approx. 20 minutes
Source text: Standard formulation: • ethanol (MEK denatured) 25.0 % • 1-propanol 35.0 % • perfume 0.02 % • benzotriazole 0.001 % • Marlipal 013/70 0.1% (isotridecanpolyethyleneglycol-(7)-ether = C13 oxo alcohol + 7 mol ethylene oxide) • active ingredient additive x% • dem. water to 100 Test germ: Ps. aeruginosa Test method:
Quantitative surface test according to DGHM (Deutsche Gesellschaft für Hygiene and Microbiology = German Association for Hygiene and Microbiology). In order to exclude the effectiveness of the readily volatile alcohol components (ethanol, 1-propanol), the preparations were deposited onto the surfaces and the germs were deposited after approx. 20 minutes. Test surfaces: PVC and OP tiles Data as reduction factors (log stages)

[3] = system: resident skin flora; experiment: Skin antiseptic a): action against the resident skin flora; assay type: in vivo; settings: formulation with 1.0% aromatic alcohol in 1-propanol 30.0%, 2-propanol 45.0%; concentration and time
[4] = system: Pseudomonas aeruginosa ATCC 15442; experiment: Skin antiseptic b): quantitative suspension test according to DGHM; assay type: cell-based; settings: 1.0% 8, formulation 1-propanol 15.0%, 2-propanol 30.0%
Source text: (§1) • 1-propanol 15.0% • 2-propanol 30.0% • aromatic alcohol 1.0% • dem. water to 100 [table]

[5] = system: Staphylococcus aureus ATCC 6538; experiment: as above; assay type: cell-based; settings: 1.0% 8, formulation 1-propanol 15.0%, 2-propanol 30.0%
Source text: as §1

[6] = system: Candida albicans ATCC 10231; experiment: as above; assay type: cell-based; settings: 1.0% 8, formulation 1-propanol 15.0%, 2-propanol 30.0%
Source text: as §1

## OCCCc1ccccc1 [Alcohol 1, 3-phenyl propanol, reference compound]
[1]; 1st week
  growth, 1st week: + (slight growth approx. 10^3 CFU/g)
[1]; 2nd week
  growth, 2nd week: + (slight growth approx. 10^3 CFU/g)
[1]; 3rd week
  growth, 3rd week: - (no growth < 10^2 CFU/g)
[1]; 4th week
  growth, 4th week: - (no growth < 10^2 CFU/g)
[1]; 5th week
  growth, 5th week: - (no growth < 10^2 CFU/g)
[2]; PVC, 30'
  reduction factors (log stages): 0 log stages
[2]; PVC, 60'
  reduction factors (log stages): 0 log stages
[2]; PVC, 240'
  reduction factors (log stages): 0 log stages
[2]; Tiles, 30'
  reduction factors (log stages): 0 log stages
[2]; Tiles, 60'
  reduction factors (log stages): 0 log stages
[2]; Tiles, 240'
  reduction factors (log stages): 0 log stages

## CCCCCC(=Cc1ccccc1)CO [Alcohol 8, α-amyl cinnamyl alcohol]
[3]
  action against the resident skin flora: 100%, 15 seconds
[4]; column 25, contact time 1'
  reduction factors (log stages): 0 log stages
[4]; column 25, contact time 2'
  reduction factors (log stages): 0 log stages
[4]; column 25, contact time 5'
  reduction factors (log stages): 0 log stages
[4]; column 25, contact time 30"
  reduction factors (log stages): 0 log stages
[4]; column 50, contact time 1'
  reduction factors (log stages): >5.8 log stages
[4]; column 50, contact time 2'
  reduction factors (log stages): >5.7 log stages
[4]; column 50, contact time 5'
  reduction factors (log stages): >5.7 log stages
[4]; column 50, contact time 30"
  reduction factors (log stages): >5.6 log stages
[4]; column 75, contact time 1'
  reduction factors (log stages): >5.8 log stages
[4]; column 75, contact time 2'
  reduction factors (log stages): >5.7 log stages
[4]; column 75, contact time 5'
  reduction factors (log stages): >5.7 log stages
[4]; column 75, contact time 30"
  reduction factors (log stages): >5.6 log stages
[5]; column 25, contact time 1'
  reduction factors (log stages): 3.6 log stages
[5]; column 25, contact time 2'
  reduction factors (log stages): 4.7 log stages
[5]; column 25, contact time 5'
  reduction factors (log stages): >5.8 log stages
[5]; column 25, contact time 30"
  reduction factors (log stages): 2.8 log stages
[5]; column 50, contact time 1'
  reduction factors (log stages): >5.5 log stages
[5]; column 50, contact time 2'
  reduction factors (log stages): >5.9 log stages
[5]; column 50, contact time 5'
  reduction factors (log stages): >5.8 log stages
[5]; column 50, contact time 30"
  reduction factors (log stages): >5.6 log stages
[5]; column 75, contact time 1'
  reduction factors (log stages): >5.5 log stages
[5]; column 75, contact time 2'
  reduction factors (log stages): >5.9 log stages
[5]; column 75, contact time 5'
  reduction factors (log stages): >5.8 log stages
[5]; column 75, contact time 30"
  reduction factors (log stages): >5.6 log stages
[6]; column 25, contact time 1'
  reduction factors (log stages): 0.6 log stages
[6]; column 25, contact time 2'
  reduction factors (log stages): 1.1 log stages
[6]; column 25, contact time 5'
  reduction factors (log stages): 1.7 log stages
[6]; column 25, contact time 30"
  reduction factors (log stages): 0.5 log stages
[6]; column 50, contact time 1'
  reduction factors (log stages): 3.5 log stages
[6]; column 50, contact time 2'
  reduction factors (log stages): >4.9 log stages
[6]; column 50, contact time 5'
  reduction factors (log stages): >5.1 log stages
[6]; column 50, contact time 30"
  reduction factors (log stages): 2.7 log stages
[6]; column 75, contact time 1'
  reduction factors (log stages): >4.6 log stages
[6]; column 75, contact time 2'
  reduction factors (log stages): >4.9 log stages
[6]; column 75, contact time 5'
  reduction factors (log stages): >5.1 log stages
[6]; column 75, contact time 30"
  reduction factors (log stages): >4.6 log stages
